Measurements: patent US9771344B2, “Peloruside analogs” (Universiteit Gent, priority 2013, dated 2017)

Key:
MO4 cells [1] = test: MTT assay (MTT conversion); format: cell-based, murine; conditions: 4 days
Experimental: (§1) FIG. 3: JC168 inhibits MTT conversion. MO4 cells were treated with dimethyl sulfoxide (DMSO, solvent control), 0.001, 0.01, 0.1 or 1 μg/ml JC168 for 4 days. Then, 3-(4,5-dimethylthiazol-2-yl)-2,5-diphenyltetrazolium bromide was added and the cultures were incubated to allow the cells to reduce the MTT into formazan. The formazan was dissolved and optical density was measured. Data represent optical density (OD) as a percentage of solvent control (mean and standard deviation, n=6).
as §1, with “FIG. 4: Comparison of” for “FIG. 3:”, “JC168 and paclitaxel to inhibit” for “JC168 inhibits”, “control), 1 μg/ml JC168” for “control), 0.001, 0.01, 0.1”, “μg/ml paclitaxel” for “μg/ml JC168”
As test cells for functional assays MO4 cells were used, which are murine virally transformed fibrosarcoma-like cells. […]
MTT (3-(4,5-Dimethylthiazol-2-yl)-2,5-diphenyltetrazolium bromide, a yellow tetrazole), was reduced to purple formazan in living cells. […] The absorbance of this colored solution was quantified by measuring it at a wavelength between 500 and 600 nm by a spectrophotometer. […]

MO4 cells [2] = test: Chick heart invasion assay; format: cell-based, murine; conditions: 1 μg/ml, invasion of MO4 cells into embryonic chick heart
Experimental: Aggregates of MO4 cells were prepared by diluting single dissociated cells to appropriate concentrations in 6 ml complete growth medium in a 50 ml Erlenmeyer flask and incubated on a Gyrotory shaker at 37° C. and 70 rpm in a humidified atmosphere with 10% CO2 in air for 72 h. The aggregates were confronted overnight on top of semi-solid agar medium with precultured heart fragments (PHF, diameter 0.4 mm) prepared from 9-day-old chick embryos. Suspension organotypic cultures were incubated in 1.5 ml culture medium with or without a test compound on a Gyrotory shaker at 120 rpm under a controlled atmosphere containing 10% CO2 in air. Cells were fixed in Bouin-Hollande's solution and embedded in paraffin for histologic determination of cell invasiveness. Consecutive sections were stained with haematoxylin-eosin. Invasion is defined as the progressive occupation of PHF by the confronting test cells. Microscopic analysis of all consecutive sections from a confronting culture allowed the reconstruction of the interaction between the cell aggregate and the PHF in three dimensions.
The observation of different patterns of interaction has led to the following scale:
Grade I and II are observed with non-invasive cell populations, while grade III an IV are typical of invasion. To evaluate progression with time, histological analysis was done on confronting cultures fixed after different incubation periods.
MO4 cells were confronted with precultured heart fragments and the organotypic cultures were incubated in suspension in the presence of DMSO (solvent control), JC168 or paclitaxel (positive control) for 2-4 days.

[3] = test system: cytoplasmic microtubule complex; test: Immunocytochemistry of the cytoplasmic microtubule complex; format: cell-based, rat kangaroo (Potorous tridactylus); conditions: PtK2 cells
Experimental: The PtK2 cell line was established from the kidney tissue of an adult male rat kangaroo (Potorous tridactylus).
Cells were seeded on glass coverslips in culture medium, supplemented with fetal bovine serum, at an initial concentration of 10,000/coverslip. After incubation overnight to allow spreading, treatments started at 37° C. for 1, 4 or 24 h. Cultures were then rinsed with phosphate-buffered saline and fixed in methanol at −20° C. The primary rabbit anti-tubulin polyclonal antibody was a gift from Dr. De Brabander (Janssen Life Sciences, Beerse, Belgium).
PtK2 cells were treated with DMSO (solvent control), JC168, or paclitaxel (positive control). After 1 hour, 4 hours, and 24 hours of incubation, cells were fixed and stained for the cytoplasmic microtubule complex.

MO4 cells [4] = test: Sulforhodamine B assay (cell growth); format: cell-based, murine; conditions: 4 days
Experimental: (§2) MO4 cells were treated with dimethyl sulfoxide (DMSO, solvent control), 0.001, 0.01, 0.1 or 1 μg/ml JC168 for 4 days. After said 4 days of incubation the cells were fixed and stained with sulforhodamine B to determine cellular protein content. Excess dye was removed by washing. Protein-bound dye was dissolved and optical density was measured. Data represent optical density (OD) as a percentage of solvent control (mean and standard deviation, n=6).
as §2, with “FIG. 2: Comparison of JC168 and paclitaxel to inhibit cell growth. MO4” for “MO4”, “1 μg/ml JC168” for “0.001, 0.01, 0.1”, “paclitaxel” for “JC168”, “n=6). […]” for “n=6).”
The sulforhodamine B (SRB) assay was used for cell density determination. […] The method allows a large number of samples to be tested within a few days, and is a quantitative assay for growth inhibition by microtubule inhibitors. […] The protein-bound dye was dissolved in 10 mM Tris base solution for OD determination at 510 nm using a microplate reader. […]

MDA-MB231 GFP-LUC cells = test: Collagen type I invasion assay; format: cell-based, human; conditions: for Histological sections of the collagen gels: cells on top of the gel: after 14 days
Experimental: Invading cells were counted by phase-contrast microscopy as cells with extensions penetrating into the gel. (A) Invasion was calculated as the percentage of invading cells per high powered field (mean and standard deviation, n=10). Microphotographs of representative cultures of MDA-MB231 GFP-LUC cells treated with DMSO (B), 1 μg/ml JC168 (C), and 1 μg/ml paclitaxel (D) after 24 hours of incubation on top of a collagen type I gel. Scalebar=100 μm.
These cells are derived from a human mammary carcinoma and were stably transfected with green fluorescent protein (GFP) and luciferase (LUC).
Tissue invasion requires infiltration into an extracellular matrix (ECM) dominated by networks of collagen type I. The invasion model, presented here, consists of native, acid-extracted rat tail collagen type I containing nonhelical telopeptides situated at the N- and C-terminal ends. These telopeptides play an important role in intermolecular covalent cross-links necessary for a gel architecture presenting itself as a structural barrier to cancer cell traffic. Collagen type I solution was prepared with a final concentration of 1 mg ml^−1 collagen type I by mixing the following pre-cooled (stored at 4° C.) components: 4 volumes collagen type I (stock is 3.49 mg ml^−1), 5 volumes of calcium- and magnesium-free Hank's balanced salt solution (CMF-HBSS), 1 volume of minimal essential medium (MEM) (10×), 1 volume of 0.25 M NaHCO3, 2.65 volumes of standard medium and 0.3 volumes of 1M NaOH to make the solution alkaline. The collagen type I solution was gently poured into the wells of a 6-well plate. The experimental set-up was placed at 37° C. in a humidified atmosphere with 10% CO2 in air for at least 1 h. After gelification, a cell suspension of MDA-MB231 GFP-LUC cells was added on top of the collagen gels and incubated for 24 hours. […] Invasion is calculated as the percentage of invading cells per high powered field and is expressed as the mean and standard deviation. The number of examined fields is 10. The sections were stained with hematoxylin-eosin.
MDA-MB231 GFP-LUC cells were treated with DMSO (solvent control), JC168, or paclitaxel (positive control) or left untreated (control) and incubated on a collagen type I gel. After 24 hours of incubation, invasion into the collagen was evaluated by phase-contrast microscopy. […] From this we can conclude that the number of invaded cells is clearly lower in the treated cultures.

Row | Compound | Potency to inhibit MTT conversion as compared to paclitaxel (MO4 cells [1]; 1 μg/ml each, FIG. 4) [%] | Effect on MTT conversion into formazan (MO4 cells [1]; 0.001-1 μg/ml, FIG. 3) | Number of organotypic cultures classified Grade I (MO4 cells [2]; incubation 2 days) | Number of organotypic cultures classified Grade II (MO4 cells [2]; incubation 3 days) | Number of organotypic cultures classified Grade II (MO4 cells [2]; incubation 4 days) | Number of organotypic cultures classified Grade III (MO4 cells [2]; incubation 4 days) | Effect on the cytoplasmic microtubule complex, 1 hour ([3]; 0.1 μg/ml) | Effect on the cytoplasmic microtubule complex, 4 hours ([3]; 0.1 μg/ml) | Effect on the cytoplasmic microtubule complex, 24 hours ([3]; 0.1 μg/ml) | Effect on the cytoplasmic microtubule complex, 1 hour ([3]; 1.0 μg/ml) | Effect on the cytoplasmic microtubule complex, 4 hours ([3]; 1.0 μg/ml) | Effect on the cytoplasmic microtubule complex, 24 hours ([3]; 1.0 μg/ml) | Potency to inhibit cell growth as compared to paclitaxel (MO4 cells [4]; 1 μg/ml each, FIG. 2) [%] | Effect on cell growth (sulforhodamine B, words) (MO4 cells [4]; 0.001-1 μg/ml, FIG. 1) | Potency to inhibit invasion in collagen type I as compared to paclitaxel (MDA-MB231 GFP-LUC cells; MDA-MB231 GFP-LUC cells, 24 hours) [%] | Effect on invasion into collagen type I (MDA-MB231 GFP-LUC cells; MDA-MB231 GFP-LUC cells, 24 hours, FIG. 5) | Histological sections of the collagen gels: cells on top of the gel (MDA-MB231 GFP-LUC cells)
1 | CC[C@H](/C=C(/C)[C@@H]1C[C@@H](OC)C[C@H](O)C(C)(C)c2cccc(c2)C[C@@H](O)C(O)C(=O)O1)CO (stereo partly drawn) [JC168, (1′Z,3R,3′R,4S,7S,9S,11S)-3,4,11-Trihydroxy-7-(3′-hydroxymethyl-1′-methylpent-1′-enyl)-9-methoxy-12,12-dimethyl-6-oxabicyclo[11.3.1]heptadeca-1(17),13,15-trien-5-one] | 3 | inhibits the conversion | n = 5 | n = 5 | n = 3 | n = 3 | disturbed | disturbed | disturbed | disturbed | disturbed | disturbed | 5 | inhibits cell growth | 89 | inhibits invasion | low number of cells on top of the gel
2 | CC(=O)O[C@H]1C(=O)[C@@]2(C)[C@H]([C@H](OC(=O)c3ccccc3)[C@]3(O)C[C@H](OC(=O)[C@H](O)[C@@H](NC(=O)c4ccccc4)c4ccccc4)C(C)=C1C3(C)C)[C@]1(OC(C)=O)CO[C@@H]1C[C@@H]2O [paclitaxel, reference compound] | – | – | – | – | n = 5 | – | normal | disturbed | disturbed | disturbed | disturbed | disturbed | – | – | – | – | low number of cells on top of the gel
